Reference: patent US10266535B2, “Inhibitor of FLT3 kinase and use thereof” (HEFEI INSTITUTES OF PHYSICAL SCIENCE, CHINESE ACADEMY OF …, priority 2015, dated 2019)

Assays:
[1] = test system: MV4-11 (expressing FLT3/ITD mutant gene); assay: Cell proliferation, Cell Titer-Glo, MV4-11; type: cell-based; conditions: Homo sapiens, MV4-11; incubated for 72 hours; read-out: MV4-11 IC50
Procedure: (§1) The above cell lines were constructed by our laboratory.
(§2) The number of viable cells was determined by quantification of ATP in living cells using the Cell Titer-Glo® (Promega, USA) chemiluminescence cell viability assay kit.

[2] = test system: MOLM-13 (expressing FLT3/ITD mutant gene and wild-type FLT3 gene); assay: Cell proliferation, Cell Titer-Glo, MOLM-13; type: cell-based; conditions: Homo sapiens, MOLM-13; incubated for 72 hours; read-out: MOLM-13 IC50
Procedure: as §1, §2

[3] = test system: TEL-BaF3-FLT3/ITD (stably expressing FLT3/ITD mutant activated kinase); assay: Cell proliferation, Cell Titer-Glo, TEL-BaF3-FLT3/ITD; type: cell-based, mouse; conditions: Mus musculus, 72 h, incubated for 72 hours; read-out: TEL-BaF3-FLT3/ITD IC50
Procedure: as §1, §2

[4] = test system: BaF3-FLT3-ITD-F691L (stably expressing FLT3/ITD F691L mutant activated kinase); assay: Cell proliferation, Cell Titer-Glo, BaF3-FLT3-ITD-F691L; type: cell-based; conditions: Mus musculus; incubated for 72 hours; read-out: BaF3-FLT3-ITD-F691L IC50
Procedure: as §1, §2

pro-B cell BaF3 = assay: Cell proliferation, Cell Titer-Glo, BaF3; type: cell-based; conditions: Mus musculus, incubated for 72 hours
Procedure: as §1, §2

[5] = test system: U937 (expressing wild-type FLT3 gene); assay: Cell proliferation, Cell Titer-Glo, U937; type: cell-based, human; conditions: Homo sapiens, U-937, 72 h, incubated for 72 hours; read-out: U937 IC50
Procedure: as §1, §2

[6] = test system: OCI-AML-3 (expressing FLT3 A680V mutant gene); assay: Cell proliferation, Cell Titer-Glo, OCI-AML3; type: cell-based; conditions: Homo sapiens, incubated for 72 hours
Procedure: as §1, §2

[7] = test system: TEL-BaF3-BMX (stably expressing BMX kinase); assay: Cell proliferation, Cell Titer-Glo, TEL-BaF3-BMX; type: cell-based; conditions: Mus musculus; incubated for 72 hours
Procedure: as §1, §2

[8] = test system: TPR-MET-BaF3 (stably expressing MET kinase); assay: Cell proliferation, Cell Titer-Glo, TPR-MET-BaF3; type: cell-based; conditions: Mus musculus; incubated for 72 hours
Procedure: as §1, §2

[9] = test system: TEL-BaF3-BLK (stably expressing BLK kinase); assay: Cell proliferation, Cell Titer-Glo, TEL-BaF3-BLK; type: cell-based; conditions: Mus musculus; incubated for 72 hours
Procedure: as §1, §2

BTK protein kinase = BTK protein kinase (Homo sapiens (Human), UniProt Q06187); assay: In vitro inhibition activity (enzymatic activity), ADP-Glo, BTK; type: biochemical; conditions: ATP 10 μM
[10] = test system: MOLM-14 (expressing FLT3/ITD mutant gene and wild-type FLT3 gene); assay: Cell proliferation, Cell Titer-Glo, MOLM-14; type: cell-based; conditions: Homo sapiens, MOLM-14; incubated for 72 hours; read-out: MOLM-14 IC50
Procedure: as §1, §2

[11] = test system: TEL-BaF3-FLT3-D835Y (stably expressing FLT3 D835Y mutant activated kinase); assay: Cell proliferation, Cell Titer-Glo, TEL-BaF3-FLT3-D835Y; type: cell-based; conditions: Mus musculus; incubated for 72 hours; read-out: TEL-BaF3-FLT3-D835Y IC50
Procedure: as §1, §2

[12] = test system: TEL-cKIT-BaF3 (stably expressing cKIT kinase); assay: Cell proliferation, Cell Titer-Glo, TEL-cKIT-BaF3; type: cell-based; conditions: Mus musculus; incubated for 72 hours
Procedure: as §1, §2

[13] = test system: TEL-BaF3-EGFR (stably expressing EGFR kinase); assay: Cell proliferation, Cell Titer-Glo, TEL-BaF3-EGFR; type: cell-based; conditions: Mus musculus; incubated for 72 hours
Procedure: as §1, §2

[14] = test system: TEL-JAK1-BaF3 (stably expressing JAK1 kinase); assay: Cell proliferation, Cell Titer-Glo, TEL-JAK1-BaF3; type: cell-based; conditions: Mus musculus; incubated for 72 hours
Procedure: as §1, §2

BTK protein kinase, sequence (Q06187 whole entry): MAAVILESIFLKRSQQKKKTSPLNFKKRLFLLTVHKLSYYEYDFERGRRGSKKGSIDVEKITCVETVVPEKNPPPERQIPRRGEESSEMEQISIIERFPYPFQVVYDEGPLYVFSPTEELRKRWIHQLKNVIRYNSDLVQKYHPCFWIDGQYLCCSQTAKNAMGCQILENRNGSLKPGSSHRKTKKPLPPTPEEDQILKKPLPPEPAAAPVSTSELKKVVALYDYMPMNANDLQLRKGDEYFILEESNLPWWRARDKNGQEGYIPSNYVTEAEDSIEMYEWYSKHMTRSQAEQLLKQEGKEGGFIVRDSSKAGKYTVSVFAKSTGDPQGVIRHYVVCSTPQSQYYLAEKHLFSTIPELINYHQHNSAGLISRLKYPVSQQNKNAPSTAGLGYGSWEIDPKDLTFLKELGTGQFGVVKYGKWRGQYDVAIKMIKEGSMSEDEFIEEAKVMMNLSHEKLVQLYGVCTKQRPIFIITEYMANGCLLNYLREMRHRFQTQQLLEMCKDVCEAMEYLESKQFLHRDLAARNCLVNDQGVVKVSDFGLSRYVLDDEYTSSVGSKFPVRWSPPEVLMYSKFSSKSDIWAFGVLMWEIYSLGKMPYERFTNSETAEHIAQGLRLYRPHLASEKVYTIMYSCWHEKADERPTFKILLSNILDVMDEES

| SMILES | IC50 [1] [nM] | IC50 [2] [nM] | IC50 [3] [nM] | IC50 [4] [nM] | IC50 (pro-B cell BaF3) [nM] | IC50 [5] [nM] | IC50 [6] [nM] | IC50 [7] [nM] | IC50 [8] [nM] | IC50 [9] [nM] | IC50 (BTK protein kinase) [nM] | IC50 [10] [nM] | IC50 [11] [nM] | IC50 [12] [nM] | IC50 [13] [nM] | IC50 [14] [nM] |
| --- | --- | --- | --- | --- | --- | --- | --- | --- | --- | --- | --- | --- | --- | --- | --- | --- |
| CC(C)[C@@H](N)C(=O)N1CCC[C@@H](n2nc(-c3ccc(Oc4ccccc4)cc3)c3c(N)ncnc32)C1 (stereo in doubt) [Compound 45, (R)-2-amino-1-((R)-3-(4-amino-(4-phenoxyphenyl)-1H-pyrazolo[3,4-d]pyrimidin-1-yl)piperidin-1-yl)-3-methylbutanone] | 27 | 25 | 17 | 370 | 1400 | > 10000 | 4200 | 92 | 1380 | 96 | 260 | – | – | – | – | – |
| Nc1ncnc2c1c(-c1ccc(Oc3ccccc3)cc1)nn2[C@@H]1CCCN(C(=O)C(F)(F)F)C1 [Compound 2, (R)-1-(3-(4-amino-(4-phenoxyphenyl)-1H-pyrazolo[3,4-d]pyrimidin-1-yl)piperidin-1-yl)-2,2,2-trifluoroethanone] | 300 | 290 | 120 | – | 2000 | > 10000 | – | 82 | 4700 | 630 | – | 720 | 130 | 1900 | 6100 | 1400 |
| Nc1ncnc2c1c(-c1ccc(Oc3ccccc3)cc1)nn2[C@@H]1CCCN(S(N)(=O)=O)C1 [Compound 4, (R)-3-(4-amino-(4-phenoxyphenyl)-1H-pyrazolo[3,4-d]pyrimidin-1-yl)piperidin-1-sulfonamide] | 300 | 230 | – | – | > 10000 | – | – | 820 | > 10000 | 1400 | – | 680 | 160 | 4900 | > 10000 | > 10000 |
| Nc1ncnc2c1c(-c1ccc(Oc3ccccc3)cc1)nn2[C@@H]1CCCN(C(=O)[C@H](N)Cc2c[nH]c3ccccc23)C1 [Compound 8, (R)-2-amino-1-((R)-3-(4-amino-(4-phenoxyphenyl)-1H-pyrazolo[3,4-d]pyrimidin-1-yl)piperidin-1-yl)-3-(1H-indol-3-yl)propan-1-one] | 270 | 180 | 270 | – | 620 | 1000 | – | 550 | – | 560 | 254 | 310 | 89 | 750 | 1400 | 270 |
| Nc1ncnc2c1c(-c1ccc(Oc3ccccc3)cc1)nn2[C@@H]1CCCN(C(=O)[C@H](N)Cc2ccc(O)cc2)C1 [Compound 10, (R)-2-amino-1-((R)-3-(4-amino-(4-phenoxyphenyl)-1H-pyrazolo[3,4-d]pyrimidin-1-yl)piperidin-1-yl)-3-(4-hydroxyphenyl)propan-1-one] | 61 | 64 | 110 | – | 1200 | 3400 | – | 840 | 1400 | 1000 | 128 | 110 | 64 | 1100 | 3700 | 400 |
| N#CCC(=O)N1CCC[C@@H](n2nc(-c3ccc(Oc4ccccc4)cc3)c3c(N)ncnc32)C1 [Compound 20] | 200 | 160 | 120 | – | > 10000 | > 10000 | – | 47 | > 10000 | 520 | – | 410 | 150 | 3300 | 4700 | > 10000 |
| CC(O)C(=O)N1CCC[C@@H](n2nc(-c3ccc(Oc4ccccc4)cc3)c3c(N)ncnc32)C1 (stereo partly drawn) [Compound 23, 1-((R)-3-(4-amino-(4-phenoxyphenyl)-1H-pyrazolo[3,4-d]pyrimidin-1-yl)piperidin-1-yl)-2-hydroxylpropan-1-one] | 320 | 290 | 91 | – | > 10000 | 4300 | – | 88 | > 10000 | 2800 | 204 | 630 | 430 | 4800 | 6500 | > 10000 |
